Data taken from patent publication US20230131899A1, “INHIBITORS OF MICROBIALLY INDUCED AMYLOID” (Axial Therapeutics, Inc., priority 2020, published 2023).
Where two headings read alike, the source gives them in different places.

Target: T1, E. coli CsgA (Escherichia coli, UniProt P28307)
T1 construct: made in house; host or cells: E. coli NEB 3016 slyD::kan, pET11d
Assay: In vitro ThioflavinT assay of CsgA aggregation (CsgA ThT Assay)
Assay type: biochemical
Details: for remaining activity at 25 µM: compound 25 μM; for remaining activity at 100 µM: compound 100 μM
Summary of the method: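 Purified C-terminal His-tagged CsgA, monomerised by desalting and 30-kDa filtration, at 2-20 μM with 20-40 μM ThT in 50 mM potassium phosphate pH 7.3, 1% DMSO, compounds 3.125-200 uM; room temperature, fluorescence (ex 438/em 495 nm) read every 15 min. Background-subtracted signal expressed as percent inhibition versus vehicle at 6-6.5 or 8-9 h, or as percent control AUC.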

[1] = read-out: CsgA ThT Assay (10 μM CsgA) % Control AUC at 1005 minutes, 25 μM (activity range), CsgA 10 μM, black plates, 1005 minutes, class symbol
[2] = read-out: CsgA ThT Assay (10 μM CsgA) % Control AUC at 1005 minutes, 25 μM, mean AUC as % of DMSO control, CsgA 10 μM, black plates, 1005 minutes
[3] = read-out: CsgA ThT Assay (2 μM CsgA) % Control Bmax 25 μM, activity range, class symbol, CsgA 2 μM, white plates
[4] = read-out: CsgA ThT Assay (2 μM CsgA) % Control Bmax 25 μM, mean Bmax as percentage of DMSO control, CsgA 2 μM, white plates
[5] = read-out: CsgA ThT Assay (2 μM CsgA) % Control Bmax 100 μM, activity range, class symbol, CsgA 2 μM, white plates
[6] = read-out: CsgA ThT Assay (2 μM CsgA) % Control Bmax 100 μM, mean Bmax as percentage of DMSO control, CsgA 2 μM, white plates

T1 sequence (P28307 23-151): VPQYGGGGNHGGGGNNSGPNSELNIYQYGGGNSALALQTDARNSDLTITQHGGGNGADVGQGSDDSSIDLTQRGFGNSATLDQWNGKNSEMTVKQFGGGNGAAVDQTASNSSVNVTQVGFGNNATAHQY

Row | Structure (SMILES) | remaining activity at 25 µM [1] [%] | remaining activity at 25 µM [2] [%] | remaining activity at 100 µM (read-out: CsgA ThT Assay (10 μM CsgA) % Control AUC at 1005 minutes, 100 μM (activity range), CsgA 10 μM, black plates, 1005 minutes, class symbol) [%] | remaining activity at 100 µM (read-out: CsgA ThT Assay (10 μM CsgA) % Control AUC at 1005 minutes, 100 μM, mean AUC as % of DMSO control, CsgA 10 μM, black plates, 1005 minutes) [%] | remaining activity at 25 µM [3] [%] | remaining activity at 25 µM [4] [%] | remaining activity at 100 µM [5] [%] | remaining activity at 100 µM [6] [%]
1 | O=C(O)C1CN(C[C@@H](O)CO)S(=O)(=O)c2c(-c3cccc(C(F)(F)F)c3)c(Cc3cccc4ccccc34)cc(=O)n21 (mixture of isomers) [Compound 065b, 2-((R)-2,3-dihydroxypropyl)-8-(naphthalen-1-ylmethyl)-6-oxo-9-(3-(trifluoromethyl)phenyl)-3,4-dihydro-2H,6H-pyrido[1,2-e][1,2,5]thiadiazine-4-carboxylic acid 1,1-dioxide] | > 60 | 66 | 11 to 31 | 16 |  |  |  | 
2 | O=C(O)C1CN(Cc2ccccc2)c2c(-c3cccc(C(F)(F)F)c3)c(Cc3cccc4ccccc34)c(Cl)c(=O)n21 (stereo not shown) [Compound 004, 1-benzyl-6-chloro-7-(naphthalen-1-ylmethyl)-5-oxo-8-(3-(trifluoromethyl)phenyl)-1,2,3,5-tetrahydroimidazo[1,2-a]pyridine-3-carboxylic acid] |  |  |  |  | 31 to 60 | 57 | 11 to 31 | 26
3 | O=C(O)C1CN(Cc2cccc3ccccc23)c2c(-c3cccc(C(F)(F)F)c3)c(Cc3cccc4ccccc34)c(Cl)c(=O)n21 (stereo not shown) [Compound 200, 6-chloro-1,7-bis(naphthalen-1-ylmethyl)-5-oxo-8-(3-(trifluoromethyl)phenyl)-1,2,3,5-tetrahydroimidazo[1,2-a]pyridine-3-carboxylic acid] |  |  |  |  | 31 to 60 | 52 | < 10 | 7
4 | CCCN1CC(C(=O)O)n2c(c(-c3cccc(C(F)(F)F)c3)c(C(F)(F)c3cccc4ccccc34)cc2=O)S1(=O)=O (stereo not shown) [Compound 138, 8-(difluoro(naphthalen-1-yl)methyl)-6-oxo-2-propyl-9-(3-(trifluoromethyl)phenyl)-3,4-dihydro-2H,6H-pyrido[1,2-e][1,2,5]thiadiazine-4-carboxylic acid 1,1-dioxide] |  |  |  |  | > 60 | 73 | 31 to 60 | 43
5 | Cn1c(=O)c2c(ncn2CCCCCCCN2CC(C(=O)O)n3c(c(-c4cccc(C(F)(F)F)c4)c(Cc4cccc5ccccc45)cc3=O)S2(=O)=O)n(C)c1=O (stereo not shown) [Compound 036] | > 60 | 65 |  |  |  |  |  | 
6 | O=C(O)C1CN(CC2CCCCC2)c2c(-c3cccc(C(F)(F)F)c3)c(Cc3cccc4ccccc34)c(Cl)c(=O)n21 (stereo not shown) [Compound 180, 6-chloro-1-(cyclohexylmethyl)-7-(naphthalen-1-ylmethyl)-5-oxo-8-(3-(trifluoromethyl)phenyl)-1,2,3,5-tetrahydroimidazo[1,2-a]pyridine-3-carboxylic acid] |  |  |  |  | > 60 | 65 | 11 to 31 | 21
7 | O=C(O)C1CN(Cc2ccccc2)c2c(-c3cccc(C(F)(F)F)c3)c(Cc3cccc4ccccc34)c(F)c(=O)n21 (stereo not shown) [Compound 194, 1-benzyl-6-fluoro-7-(naphthalen-1-ylmethyl)-5-oxo-8-(3-(trifluoromethyl)phenyl)-1,2,3,5-tetrahydroimidazo[1,2-a]pyridine-3-carboxylic acid] |  |  |  |  | > 60 | 100 | > 60 | 67
8 | O=C(O)C1CN(Cc2ccc(-c3ccccc3)cc2)c2c(-c3cccc(C(F)(F)F)c3)c(Cc3cccc4ccccc34)c(Cl)c(=O)n21 (stereo not shown) [Compound 202, 1-([1,1′-biphenyl]-4-ylmethyl)-6-chloro-7-(naphthalen-1-ylmethyl)-5-oxo-8-(3-(trifluoromethyl)phenyl)-1,2,3,5-tetrahydroimidazo[1,2-a]pyridine-3-carboxylic acid] |  |  |  |  | 31 to 60 | 51 |  | 
